Data from US6174907A, “Benzimidazole compounds containing 1,2,4-triazole ring, and compositions and methods of use containing the same” (Fuji Photo Film Co., Ltd., priority 1995, dated 2001).

Experiments:
[1] = system: rabbits fed with high cholesterol food; assay: Effect on lipid in blood, GOT and GPT in rabbits fed with high cholesterol food; type: in vivo, NZW rabbits (male); conditions: 100 mg/kg/day/rabbit in feed; for Difference in total cholesterol compared with the control group / Increase of HDL cholesterol / Reduction of LDL cholesterol compared with the control group: seven days, high cholesterol feed; for GOT / GPT: during the experiment
Description: (§1) Activity of the compounds of the present invention for suppressing the formation of arterial sclerosis lesions (in vivo experiment) By using rabbits fed with high cholesterol food, effect on lipid in blood and activity of the compounds of the present invention for suppressing formation of arterial sclerosis lesions were examined. Hypercholesterolemia condition was created by feeding NZW rabbits (male) weighing about 2 kg with high cholesterol feed (100 g/day/rabbit of OCR-4 [Oriental Yeast]+0.5% cholesterol+0.5% olive oil) for seven days. A group consisting of three rabbits was continuously administered with a compound of the present invention (Compound B16 or Compound B49) for seven days by mixing the compound with the above feed at an amount of 100 mg/kg/day/rabbit. Another group consisting of three rabbits was fed solely with the high cholesterol feed and used as a control group. Blood was collected from parotid veins with one week interval, and total cholesterol, LDL cholesterol, HDL cholesterol, GOT, and GPT were measured.

[2] = system: rabbits fed with high cholesterol food; assay: Suppression of formation of arterial sclerosis lesions (cholesterol deposited on inner vascular walls of aortas); type: in vivo, NZW rabbits (male); conditions: 100 mg/kg/day/rabbit in feed; aortas removed seven weeks after the administration
Description: Activity of the compounds of the present invention for suppressing the formation of arterial sclerosis lesions (in vivo experiment)
as §1, with “By” for “Activity of the compounds of the present invention for suppressing the formation of arterial sclerosis lesions (in vivo experiment) By”, “group.” for “group. Blood was collected from parotid veins with one week interval, and total cholesterol, LDL cholesterol, HDL cholesterol, GOT, and GPT were measured.”
Aortas were removed seven weeks after the administration, and cholesterol deposited on inner vascular walls was quantified. In the groups administered with Compound B16 or Compound B49, the amount of deposited cholesterol was reduced by 40% and 45% compared with control, respectively.

[3] = system: mouse peritoneal macrophages; assay: Suppression of foaming of macrophages (cholesterol ester synthesis) in vitro; type: cell-based, mouse (female ICR); conditions: Mus musculus, Peritoneal macrophage; Table 4; 5 μM; 16 hours; relative to control as 100%; smaller value = more potent suppression; read-out: Rate of CE synthesis (%)
[4] = system: mouse peritoneal macrophages; assay: Cytotoxicity examined microscopically (morphological alteration of cells); type: cell-based, mouse (female ICR); conditions: Table 4; 5 μM; observed microscopically

GOT [1] | GPT [1] | Compound | Difference in total cholesterol compared with the control group [1] | Increase of HDL cholesterol [1] [%] | Reduction of LDL cholesterol compared with the control group [1] [%] | Reduction of the amount of deposited cholesterol on inner vascular walls of aortas compared with control [2] [%] | activity at 5 µM [3] [%] | Cytotoxicity [4]
No abnormal value was observed | No abnormal value was observed | c1cnc(SCCCCCSc2nc3ccccc3[nH]2)nc1 [Compound B49] | no difference in total cholesterol was observed | 30 | 30 | 45 | 11 | Not observed
No abnormal value was observed | No abnormal value was observed | Cc1nnc(SCCCCCSc2nc3ccccc3[nH]2)s1 [Compound B16] | no difference in total cholesterol was observed | 30 | 35 | 40 | 9.3 | Not observed
